Results published in patent US20060004002A1 (priority 2004, published 2006).
Where two headings read alike, the source gives them in different places.

What was measured:
Recombinant human Src = biological target: T1, Recombinant human Src (Homo sapiens, UniProt P12931); assay: Src tyrosine kinase activity assay with poly E4Y and 32P-ATP; type: biochemical
T1 construct: made in house; host or cells: baculovirus-insect cell system
Method: (§1) Recombinant human Src was expressed using the baculovirus-insect cell system and purified as published (Budde et al., 1993 and 2000). Recombinant Csk and the FGF receptor (FGFr) were expressed as […] fusion proteins using the pGEX expression vector and E. coli, and purified as described (Sun & Budde, 1995).
(§2) The tyrosine kinase activity of Src, Csk and FGFr was determined using poly E4Y and ^32P-ATP. Briefly, enzymes were assayed in a reaction mixture […] consisting of 0.15 M EPPS-NaOH (pH 8.0) with 6 mM MgCl2, 0.2 mM γ^32P-ATP (0.2-0.4 mCi/μmol), 10% glycerol, 0.1% Triton X-100, and poly E4Y. Poly E4Y is a synthetic peptide whose phosphorylation is measured in this assay by the addition of the radioactively labeled phosphate from the ATP (Budde et al., 1995). […] When ATP was varied (0, 50, 100 and 250 μM), poly E4Y was kept constant at 150 μg/ml.

Recombinant Csk = biological target: T2, Recombinant Csk (Homo sapiens, UniProt P41240); assay: Csk tyrosine kinase activity assay with poly E4Y and 32P-ATP; type: biochemical; details: NI = no inhibition
T2 construct: GST ('glutathione-5-transferase' [sic]); made in house; host or cells: E. coli (pGEX expression vector)
Method: as §1, §2

[1] = poly E4Y, 32P-ATP, NI = no inhibition, read-out: IC50 Value Src
[2] = especially good inhibitors of Src, screening assay 50 μg/ml poly E4Y, 0.2 mM ATP, read-out: IC50 (inhibitors of Src)

T1 sequence (P12931 whole entry): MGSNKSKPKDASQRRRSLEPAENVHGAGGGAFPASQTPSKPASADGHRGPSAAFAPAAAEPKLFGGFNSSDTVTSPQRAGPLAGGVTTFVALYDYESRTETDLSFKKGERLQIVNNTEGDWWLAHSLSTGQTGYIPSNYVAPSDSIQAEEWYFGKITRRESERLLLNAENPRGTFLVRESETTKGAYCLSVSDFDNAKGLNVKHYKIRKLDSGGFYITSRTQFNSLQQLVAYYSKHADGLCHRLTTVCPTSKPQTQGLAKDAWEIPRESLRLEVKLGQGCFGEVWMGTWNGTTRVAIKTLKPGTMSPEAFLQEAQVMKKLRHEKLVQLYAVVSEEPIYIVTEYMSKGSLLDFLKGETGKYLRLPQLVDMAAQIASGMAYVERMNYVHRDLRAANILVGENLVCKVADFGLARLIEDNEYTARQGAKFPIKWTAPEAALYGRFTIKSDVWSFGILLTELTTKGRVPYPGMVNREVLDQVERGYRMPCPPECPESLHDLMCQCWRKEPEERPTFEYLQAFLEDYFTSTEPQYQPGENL

SMILES	IC50 (Recombinant human Src; [1]) [µM]	IC50 (Recombinant Csk) [µM]	IC50 (Recombinant human Src; [2]) [µM]
COc1ccc(C=NNc2ncnc3c(C)c(-c4cccc(C(N)=NO)c4)sc23)cc1O [Compound 45]	0.019	26.8	–
Cc1c(-c2ccc(C(N)=NO)cc2)sc2c(NN=Cc3cccnc3)ncnc12 [Compound 50, 3-Pyridinecarboxaldehyde (6-(N-hydroxy-benzamidin-4-yl)-7-methylthieno[3,2-d]pyrimidin-4-yl)hydrazone]	0.025	42	–
CCOc1ccccc1-c1sc2c(NN=Cc3ccc(OC)c(OCCN4CCOCC4)c3)ncnc2c1C [Compound 52, 4-Methoxy-3-(2-(morpholin-4-yl)-ethoxy)-benzaldehyde (6-(2-ethoxyphenyl)-7-methylthieno[3,2-d]pyrimidin-4-yl)hydrazone]	0.0011	46	–
COc1ccc(C=NNc2ncnc3c(C)c(-c4ccc([N+](=O)[O-])cc4)sc23)cc1O [Compound 39, 3-Hydroxy-4-methoxybenzaldehyde (6-(4-nitrophenyl)-7-methylthieno[3,2-d]pyrimidin-4-yl)hydrazone]	0.16	23	–
CCOc1ccccc1-c1sc2c(NN=Cc3ccc(OC)c(O)c3)ncnc2c1O [Compound 37, 3-Hydroxy-4-methoxybenzaldehyde (6-(2-ethoxyphenyl)-7-hydroxythieno[3,2-d]pyrimidin-4-yl)hydrazone]	0.0026	1.28	≤ 2
Cc1c(-c2cccc(C(N)=NO)c2)sc2c(NN=Cc3cccnc3)ncnc12 [Compound 49, 3-Pyridinecarboxaldehyde (6-(N-hydroxy-benzamidin-3-yl)-7-methylthieno[3,2-d]pyrimidin-4-yl)hydrazone]	0.0041	124	–
CCOc1ccccc1-c1sc2c(NN=Cc3ccc(OC)c(O)c3)ncnc2c1CO [Compound 33, 3-Hydroxy-4-methoxybenzaldehyde (7-hydroxymethyl-6-(2-ethoxyphenyl)thieno[3,2-d]pyrimidin-4-yl)hydrazone]	0.011	10	–
COc1ccc(C=NNc2ncnc3c(C)c(-c4ccc(NC(C)=O)cc4)sc23)cc1O [Compound 43, 3-Hydroxy-4-methoxybenzaldehyde (6-(4-N-acetylaminophenyl)-7-methythieno[3,2-d]pyrimidin-4-yl)hydrazone]	0.012	112	–
COc1ccc(C=NNc2ncnc3c(C)c(-c4ccc(C(N)=NO)cc4)sc23)cc1O [Compound 51, 3-Hydroxy-4-methoxybenzaldehyde (6-(N-hydroxy-benzamidin-4-yl)-7-methylthieno[3,2-d]pyrimidin-4-yl)hydrazone]	0.011	47	–
Cc1c(-c2ccc(CN)cc2)sc2c(NN=Cc3cccs3)ncnc12 [Compound 4, 2-Thiophenecarboxaldehyde (6-(4-aminomethyl)phenyl-7-methylthieno[3,2-d]pyrimidin-4-yl)hydrazone]	0.028	–	–
COc1ccc(C=NNc2ncnc3c(C)c(-c4ccccc4C#N)sc23)cc1O [Compound 31, 3-Hydroxy-4-methoxybenzaldehyde (6-(2-cyanophenyl)-7-methylthieno[3,2-d]pyrimidin-4-yl)hydrazone]	0.074	–	–
Cc1c(-c2ccc(N)cc2)sc2c(NN=Cc3cccnc3)ncnc12 [Compound 8, 3-Pyridinecarboxaldehyde (6-(4-aminophenyl)-7-methylthieno[3,2-d]pyrimidin-4-yl)hydrazone]	0.0096	–	–
CCOCc1c(-c2ccccc2OCC)sc2c(NN=Cc3ccc(OC)c(O)c3)ncnc12 [Compound 44]	0.079	–	–
Cc1nc[nH]c1C=NNc1ncnc2c(C)c(CN3CCOCC3)sc12 [Compound 16, 4-Methyl-5-imidazolecarboxaldehyde (7-methyl-6-(morpholin-4-yl)methyllthieno[3,2-d]pyrimidin-4-yl)hydrazone]	0.62	–	–
COc1ccc(C=NNc2ncnc3c(C)c(-c4ccc(F)cc4)sc23)cc1O [Compound 36, 3-Hydroxy-4-methoxybenzaldehyde (6-(4-fluorophenyl)-7-methylthieno[3,2-d]pyrimidin-4-yl)hydrazone]	0.057	–	–

Other lines, results leading:

IC50 (Recombinant human Src; [1]) [µM]	IC50 (Recombinant Csk) [µM]	IC50 (Recombinant human Src; [2]) [µM]	SMILES
0.18	500	–	COc1ccc(C=NNc2ncnc3c(C)c(-c4ccccc4O)sc23)cc1O [Compound 84, 3-Hydroxy-4-methoxybenzaldehyde (6-(2-hydroxyphenyl)-7-methylthieno[3,2-d]pyrimidin-4-yl)hydrazone]
0.0014	26	–	CCOc1ccccc1-c1sc2c(NN=Cc3ccc(C(=O)O)cc3)ncnc2c1C#N [compound 68]
0.0014	110	–	CCOc1ccccc1-c1sc2c(NN=Cc3ccc(OCCN4CCOCC4)c(OC)c3)ncnc2c1C [Compound 54, 3-Methoxy-4-(2-(morpholin-4-yl)-ethoxy)-benzaldehyde (6-(2-ethoxyphenyl)-7-methylthieno[3,2-d]pyrimidin-4-yl)hydrazone]
0.0016	0.98	≤ 2	CCOc1ccccc1-c1sc2c(NN=Cc3ccc(O)cc3)ncnc2c1O [Compound 104, 4-Hydroxybenzaldehyde (6-(2-ethoxyphenyl)-7-hydroxythieno[3,2-d]pyrimidin-4-yl)hydrazone]
0.0013	2.1	–	CCOc1ccccc1-c1sc2c(NN=Cc3cc(O)c(OC)c(OC)c3)ncnc2c1O [Compound 100, 3,4-Dimethoxy-5-hydroxybenzaldehyde (6-(2-ethoxyphenyl)-7-hydroxythieno[3,2-d]pyrimidin-4-yl)hydrazone]
0.005	7.1	–	CCOc1ccccc1-c1sc2c(NN=Cc3cccc(C(=O)O)c3)ncnc2c1O [Compound 116, 3-Carboxybenzaldehyde (6-(2-ethoxyphenyl)-7-hydroxythieno[3,2-d]pyrimidin-4-yl)hydrazone]
0.006	5	–	CCOc1ccccc1-c1sc2c(NN=Cc3ccco3)ncnc2c1O [Compound 121, 2-Furancarboxaldehyde (6-(2-ethoxyphenyl)-7-hydroxythieno[3,2-d]pyrimidin-4-yl)hydrazone]
0.0015	13	–	CCOc1ccccc1-c1sc2c(NN=Cc3cccc(O)c3)ncnc2c1C#N [compound 103]
0.043	12	–	COc1ccc(C=NNc2ncnc3c(CO)c(-c4ccc(N)cc4)sc23)cc1O [Compound 58, 3-Hydroxy-4-methoxybenzaldehyde (6-(4-aminophenyl)-7-hydroxymethylthieno[3,2-d]pyrimidin-4-yl)hydrazone]
0.009	15	–	CCOc1ccccc1-c1sc2c(NN=Cc3sccc3C)ncnc2c1O [Compound 124, 3-Methyl-2-thiophenecarboxaldehyde (6-(2-ethoxyphenyl)-7-hydroxythieno[3,2-d]pyrimidin-4-yl)hydrazone]
0.005	5.5	–	CCOc1ccccc1-c1sc2c(NN=Cc3[nH]cnc3C)ncnc2c1O [Compound 117, 4-Methyl-5-imidazolecarboxaldehyde (6-(2-ethoxyphenyl)-7-hydroxythieno[3,2-d]pyrimidin-4-yl)hydrazone]
0.0043	0.9	≤ 2	CCOc1ccccc1-c1sc2c(NN=Cc3cccc(O)c3)ncnc2c1O [Compound 105, 3-Hydroxybenzaldehyde (6-(2-ethoxyphenyl)-7-hydroxythieno[3,2-d]pyrimidin-4-yl)hydrazone]
0.12	–	–	CCOc1ccccc1-c1sc2c(NN=Cc3ccc(OC)c(O)c3)ncnc2c1COCC(O)CO (racemic) [Compound 56, 3-Hydroxy-4-methoxybenzaldehyde(7-((±)-4,5-dihydroxy-2-oxopentyl) (6-(2-ethoxyphenyl)thieno[3,2-d]pyrimidin-4-yl)hydrazone]
0.0019	–	–	CCOc1ccccc1-c1sc2c(NN=Cc3ccncc3)ncnc2c1C#N [compound 110]
0.0026	–	–	CCOc1ccccc1-c1sc2c(NN=Cc3[nH]cnc3C)ncnc2c1C#N [compound 115]
0.0064	–	–	CCOc1ccccc1-c1sc2c(NN=Cc3ccc4c(c3)OCCO4)ncnc2c1C [Compound 66, 2,3-Dihydro-benzo[1,4]dioxine-6-carbaldehyde (6-(2-ethoxyphenyl)-7-methylthieno[3,2-d]pyrimidin-4-yl)hydrazone]
0.0034	–	–	CCOc1ccccc1-c1sc2c(NN=Cc3ccoc3)ncnc2c1O [Compound 129, 3-Furancarboxaldehyde(6-(2-ethoxyphenyl)-7-hydroxythieno[3,2-d]pyrimidin-4-yl)hydrazone]
0.0049	–	–	CCOc1ccccc1-c1sc2c(NN=Cc3ccc(C)s3)ncnc2c1C#N [compound 126]
0.0028	–	–	CCOc1ccccc1-c1sc2c(NN=Cc3ccsc3)ncnc2c1O [Compound 93, 3-Thiophenecarboxaldehyde (6-(2-ethoxyphenyl)-7-hydroxythieno[3,2-d]pyrimidin-4-yl)hydrazone]
0.00058	–	–	CCOc1ccccc1-c1sc2c(NN=Cc3ccsc3)ncnc2c1C#N [compound 91]
0.0095	–	–	CCOc1cc(F)ccc1-c1sc2c(NN=Cc3cccs3)ncnc2c1C [Compound 106, 2-Thiophenecarboxaldehyde (6-(2-ethoxy-4-fluorophenyl)-7-methythieno[3,2-d]pyrimidin-4-yl)hydrazone]
